Reference: paper PMC11997985, “Synthesis and In Vitro Profiling of Psilocin Derivatives: Improved Stability and Synthetic Properties” (Journal of Medicinal Chemistry, 2025)
Several values for one entry are separate records, joined by “and”; a condition that tells them apart may be missing. Identical values can stand only once. Entries after “also recorded” stand apart in the source; their conditions may differ. Marks after values point to notes of the source that are not given here.

Assays:
[1] = Peak area in microsome suspension compared with compounds in solution; type: in vitro ADME, human; settings: peak area 15 seconds after addition of NADPH versus same amount (125 nM) in H2O/EtOH
Protocol: (§1) were taken at three timepoints, and the degradation was compared to determine if it was dependent on NADPH. Compound 4k […]
(§2) without the addition of NADPH. […]
(§3) microsomes that need to be activated by a co -factor.
(§4) Table S5 Percent of peak area found in microsome suspension 15 seconds after the addition of NADPH in comparison with the same amount dissolved in H2O/EtOH
(§5) No. Area at 0.25 min. in Area in solution % found in microsomes/NADPH (125 nM) microsome
(§6) Comparison with compounds in solution. A comparison was made between the peak area of the compounds in solution with that obtained in the microsome suspension directly after the addition of NADPH (about 0.25 minutes) (Table S5). Before the addition of NADPH, the compounds are equilibrated in the microsome suspension for approximately five minutes. All compounds were prepared in solution by diluting a portion of the DMSO solutions with H2O/EtOH (75:25) to 125 nM (the final concentration of compounds for analysis in the microsome assay).
(§7) For the compounds where no results from the microsome assay could be reported due to low peak area (4d, 4e, 4f & 5), less than one percent of the expected peak area as compared with the area in solution was detected. […]
(§8) degrade rapidly before the addition of the co-factor after five minutes in incubation. For compounds 4g, 4h, 4i & 4j, which were […]
(§9) higher relative peak areas were found. […]
(§10) without NADPH was only found at 15% of the area seen in solution in the microsome suspension.

[2] = Co-factor experiment: microsome suspension with and without NADPH; type: in vitro ADME, human; settings: for Co-factor experiment: degradation with and without addition of NADPH compared
Protocol: Therefore, additional experiments comparing stability with and without the addition of NADPH cofactor and a very short incubation period were performed (Tables S4 and S5). […] Due to the rapid observed degradation in microsomes, we decided to investigate the stability of five compounds in human plasma, aiming for a broad range of stabilities (Table 2, Table S6). It should be noted that esterase-labile compounds are notoriously difficult to study in microsomal stability studies.[36]
Table S3 Evaluation of metabolic stability in human microsomes
No. Metabolic stability Comment
4k <10/<10 Low retention in chromatography
8 <10/<10 Low retention in chromatography.
Table S4 Results from the modified microsome assay where degradation with and without the addition of NADPH was compared […]
4d Very low peak area for the first time point,
4e Very low peak area for the first time point,
4f Very low peak area for the first time point,
5 Very low peak area for the first time point,
8 No degradation without co -factor […]
metabolism by the microsomes (consisting mainly of cytochrome P450 enzymes) or if it was due to other factors, the compounds (with the exception of 4k) were incubated in the microsome suspension both with and without the addition of NADPH. Samples […]
as §1, §2, §3, §4, §5, §6, §7, §8, §9, §10

[3] = Stability in simulated stomach acid (0.10 M HCl); settings: 0.10 M HCl (simulated stomach acid)
[4] = Metabolic stability in human microsomes; type: in vitro ADME; settings: for Metabolic stability in human microsomes: 37 °C, 0.5 mg/mL protein, 1 μM compound, 1 mM NADPH; for Comment on microsome assay: Table S3
[5] = Chemical stability in 1.0 M NaHCO3 and 1.0 M HCl
[6] = Forced degradation of psilocin salts, oxidative (0.30% H2O2)
[7] = Photolytic degradation of psilocin salts; settings: for % psilocin remaining: after 14 days
[8] = Forced degradation of psilocin salts, acid (1.0 M HCl); settings: for % psilocin remaining: after 24 h compared with first measuring point at 1 h, LCMS; for color: visual inspection after 24 h
[9] = Forced degradation of psilocin salts, base (0.10 M NaOH)
[10] = General observations of psilocin salts in solid form in −18 °C freezer; settings: for stability (solid form): over 3 weeks in −18 °C freezer, visual inspection and LCMS; for hygroscopic: visual inspection
[11] = Thermal degradation of psilocin salts at 60 °C; settings: for % psilocin remaining: after 6 days (143 h)
[12] = Solubility, screen method, phosphate buffer pH 7.4, 1% DMSO; type: physicochemical; settings: phosphate buffer with 1% DMSO; 100 mM phosphate buffer pH 7.4, 1% DMSO; assay range 0.1 to 100 μM
[13] = test system: porcine liver esterase; assay: Stability in FaSSIF supplemented with esterase

## CCCCCCCCCCC(=O)Oc1cccc2[nH]cc(CCN(C)C)c12.O=C(O)/C=C/C(=O)O [Compound 4j]
[1]
  % found in microsome suspension: 45%
[2]
  Co-factor experiment: Degradation without co-factor
[2]; human, human microsome suspension, both with and without the addition of NADPH, read-out: intrinsic clearance
  microsomal CLint: > 200 µL/min/mg
[3]
  half-life at 5 mM: > 6.94 days
[4]
  Metabolic stability in human microsomes: >200^a μL/min/mg protein and >200 μL/min/mg protein
  Comment on microsome assay: Rapid degradation
[5]; 1.0 M HCl
  half-life at 24 h, 5 mM: 1300 min
[5]; 1.0 M NaHCO3
  half-life at 24 h, 5 mM: 1000 min

## CN(C)CCc1c[nH]c2cccc(O)c12.Cl [Compound 9a]
[6]; 0.30% H2O2 (oxidative forced degradation), half-life, 0.30% H2O2, RT
  half-life at 2 mg/mL freebase psilocin: > 6.94 days
[6]; 0.30% H2O2, after 24 h
  % psilocin remaining: 100%
[7]
  half-life at 336 h, 2 mg/mL freebase psilocin: 13.9 days
[7]; 12900 lx
  % psilocin remaining: 51%
[8]; 1.0 M HCl (acid forced degradation)
  half-life at 2 mg/mL freebase psilocin: > 6.94 days
[8]; 1.0 M HCl
  % psilocin remaining: 100%
[8]; 1.0 M HCl, RT
  color: clear
[9]; 0.10 M NaOH (base forced degradation)
  half-life at 24 h, 2 mg/mL freebase psilocin: 500 min
[9]; 0.10 M NaOH, after 24 h
  % psilocin remaining: 0%
[10]
  stability (solid form): degrading during storage after only 3 days; also recorded: not very stable
  hygroscopic: highly hygroscopic and yes
[11]
  % psilocin remaining: 0%
[11]; half-life
  half-life at 2 mg/mL freebase psilocin: < 2880 min
  half-life at 144 h, 2 mg/mL freebase psilocin: 3000 min

## CN(C)CCc1c[nH]c2cccc(OC(=O)N3CCCCC3)c12.O=C(O)/C=C/C(=O)O [Compound 4k]
[12]
  solubility: > 90 µM
[1]
  % found in microsome suspension: 79%
[3]
  half-life at 5 mM: > 6.94 days
[4]
  Metabolic stability in human microsomes: <10/<10^b μL/min/mg protein and <10 μL/min/mg protein
[5]; 1.0 M HCl
  half-life at 5 mM: > 6.94 days
[5]; 1.0 M NaHCO3
  half-life at 5 mM: > 6.94 days

## CC(C)COC(=O)Oc1cccc2[nH]cc(CCN(C)C)c12.O=CO [Compound 4d]
[12]
  solubility: > 90 µM
[13]; FaSSIF, 20 IU/mL esterase
  degradation rate among prodrugs: fastest degradation
[13]; after 1 min at 20 IU/mL
  % prodrug remaining, measured after 1 min: 7%
[13]; at 270 IU/mL
  predicted half-life: 0.02 min
[13]; calculated remaining prodrug available for GI absorption, predicted level after 5 min at 270 IU/mL (% remaining prodrug)
  predicted abs.: 7.0 × 10^–77
[13]; pig, FaSSIF supplemented with porcine liver esterase (20 IU/mL)
  half-life at 0.292 mM: 0.26 ± 0.02 min
[2]
  Co-factor experiment: Very low peak area for the first time point, instability suspected
[3]
  half-life at 5 mM: > 6.94 days
[4]
  Metabolic stability in human microsomes: >200^a μL/min/mg protein and >200 μL/min/mg protein
  Comment on microsome assay: Rapid degradation
[5]; 1.0 M HCl
  half-life at 5 mM: > 6.94 days
[5]; 1.0 M NaHCO3
  half-life at 24 h, 5 mM: 2200 min

## CN(C)CCc1c[nH]c2cccc(O)c12.OB(O)O [Compound 9b]
[6]; 0.30% H2O2
  time to complete degradation: ≤ 3 h
[6]; 0.30% H2O2, RT
  half-life: <60 min
[6]; 0.30% H2O2, after 24 h
  % psilocin remaining: 0%
[6]; 0.30% H2O2, after 24 h, RT
  color: brown
[7]; 12900 lx, RT
  half-life: <1000 ^b min
  time to complete breakdown: ≤ 1 week
[7]; 12900 lx, RT, water:acetonitrile 1:1
  color (24 h): black
[7]; 12900 lx
  % psilocin remaining: 0%
[7]; in air at RT for a week, dissolved salt
  control sample stored in darkness: entirely degraded
[8]; 1.0 M HCl, RT
  half-life: >10,000 min
  color: clear
[8]; 1.0 M HCl
  % psilocin remaining: 93%
[9]; 0.10 M NaOH, RT
  half-life: 400 min
[9]; 0.10 M NaOH, after 24 h
  % psilocin remaining: 0%
[9]; 0.10 M NaOH, after 24 h, RT
  color: black
[10]
  stability (solid form): stable enough to store as a solid in the freezer for an extended period; also recorded: no change
  hygroscopic: no
[11]
  half-life: <700 min
  time to complete degradation: ≤ 24 h
  % psilocin remaining: 0%
[11]; water:acetonitrile 1:1
  color (24 h): black
